In patent publication US9993487B2 (Universite de Liege, priority 2014, dated 2018):

What was measured:
[1] = Stability of betamethasone dipropionate under autoclave; type: physicochemical
IL13 = experiment: OVA model: IL13 ELISA in lung protein extracts; type: in vivo, BALB/c mice; details: FIG. 3
Procedure: In order to study modulation of airway inflammation, BALB/c mice of about 6 to about 8 weeks old are sensitized by intraperitoneal injection of about 10 μg ovalbumin (OVA) (Sigma Aldrich, Schnelldorf, Germany) emulsified in aluminum hydroxide (AlumInject; Perbio, Erembodegem, Belgium) on days 0 (DO) and 7 (D7). Mice are subsequently exposed to allergens by daily inhalation of an aerosol of OVA about 1%, for about 30 minutes, generated by ultrasonic nebulizer (Devilbiss 2000), from day 21 to day 25. Mice are subjected to about 50 μl intra-nasal instillations from day 18 to day 24 and are sacrificed on day 26, as previously reported by Cataldo et al.: Am. J. Pathol. 161 (2):491-498 (2002), which is incorporated herein in its entirety by reference. Placebo mice are intra-nasal injected with PBS. As stated above, the left lung is excised and frozen immediately at about −80° C. and then disrupted in liquid N2 by using a Mikro-Dismembrator (Braun Biotech International, Gmbh Melsungen, Germany) to form a homogenized powder. […] IL13 levels are measured in non-pooled lung protein samples by ELISA (duoset kit, R&D Systems, Abingdon, United Kingdom) following manufacturer's instructions. […]

[2] = tested on: Cigarette smoke-exposed mice; experiment: Cigarette smoke exposure model: BALF neutrophils; type: in vivo, C57BL/6 mice; details: budesonide alone about 500 μg/ml
Procedure: BALF supernatant is collected for protein assessment while cells are used for differential cell counts. Differential cell counts based on morphologic criteria are carried out on cytocentrifuged preparations after staining with haematoxylin-eosin (Diff-Quick, Dade, Belgium). Cells are recovered by gentle manual aspiration. After centrifugation of bronchoalveolar fluid (BALF) (about 1200 rpm for about 10 minutes, at about 4° C.), the supernatant is frozen at about −80° C. for protein assessment and the cell pellet is re-suspended in about 1 ml PBS-EDTA about 0.05 mM. The differential cell counts are performed on cytocentrifuged preparations (Cytospin) after staining with Diff-Quick (Dade, Belgium).
C57BL/6 mice are exposed to 10 cigarettes 5 days per week during 6 weeks using the Inexpose® system (Scireq, Montreal, Canada). Mice are treated by an about 50 μl intra-nasal injection 5 days per week during 6 weeks. Mice are sacrificed on day 43. Placebo mices also called sham exposed mices are injected with PBS.
Bronchoalveolar lavage fluid (BALF) analysis is the same as previously described in Example 3 (model of airway obstruction and inflammation).
Results of inflammatory cells in bronchoalveolar lavage fluid number were expressed as mean +/− SEM and the comparison between the groups is performed using Mann-Whitney test. Tests are performed using GraphPad Prism 5. […]

SMILES | stability under autoclave [1] | IL13 levels in lung tissue after allergen exposure (IL13; budesonide about 100 μg/ml compared to budesonide about 100 μg/ml—cyclodextrin about 10 mM) | IL13 levels in lung tissue after allergen exposure (IL13; budesonide about 250 μg/ml compared to complex budesonide about 250 μg/ml—cyclodextrin about 10 mM) | inflammation level in BALF of treated mice [2] | Percentage of neutrophils (+/−SEM) in BALF, Neutrophils (%) ([2]; about 50 μl intra-nasal 5 days per week during 6 weeks)
CCC(=O)OCC(=O)[C@@]1(OC(=O)CC)[C@@H](C)C[C@H]2[C@@H]3CCC4=CC(=O)C=C[C@]4(C)[C@@]3(F)[C@@H](O)C[C@@]21C [Betamethasone Dipropionate] | degrades under autoclave | – | – | – | –
CCCC1O[C@@H]2C[C@H]3[C@@H]4CCC5=CC(=O)C=C[C@]5(C)[C@H]4[C@@H](O)C[C@]3(C)[C@]2(C(=O)CO)O1 (stereo partly drawn) [budesonide, 16,17-(butylidenebis(oxy))-11,21-dihydroxy-, (11-β3,16-a)-pregna-1,4-diene-3,20-dione] | – | higher IL13 levels | higher levels of IL13 | significantly not efficient enough | about 9.64%
